Results taken from patent US6281214A, “Biphenyl derivatives” (Eisai Co., Ltd, priority 1994, dated 2001).
pKi: −log10 of the molar value. Like-named read-outs stand apart in the source and are kept apart here.

How the values were obtained:
Parameters in all cases: species or system SD rats
serotonin S2 receptor = target: T1, serotonin S2 receptor (Rattus norvegicus, UniProt P14842); assay: serotonin S2 receptor binding test ([3H] Ketanserin Binding Test); conditions: 1 nM [3H] Ketanserin, rat cortex, 37° C., 15 minutes
T1 construct: The receptor fraction prepared from the cortex was molten and suspended; from tissue; host or cells: cerebral cortex of SD rats (membrane fraction)
T1 sequence (P14842 whole entry): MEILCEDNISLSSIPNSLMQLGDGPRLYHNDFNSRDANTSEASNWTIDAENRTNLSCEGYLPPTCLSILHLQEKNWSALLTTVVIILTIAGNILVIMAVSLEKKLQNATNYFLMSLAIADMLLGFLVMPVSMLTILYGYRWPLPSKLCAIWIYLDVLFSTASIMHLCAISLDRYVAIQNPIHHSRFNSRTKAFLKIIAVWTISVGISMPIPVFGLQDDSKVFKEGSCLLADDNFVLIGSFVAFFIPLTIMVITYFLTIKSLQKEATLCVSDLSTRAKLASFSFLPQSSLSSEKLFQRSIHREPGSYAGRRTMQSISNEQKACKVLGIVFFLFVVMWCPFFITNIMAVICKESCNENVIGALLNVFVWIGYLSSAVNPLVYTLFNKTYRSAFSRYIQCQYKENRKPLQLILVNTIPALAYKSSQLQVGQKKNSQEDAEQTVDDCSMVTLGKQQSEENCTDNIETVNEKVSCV
In short: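 Rat (SD, 6–8 weeks) cortical membranes in 50 mM Tris-HCl pH 7.4 were incubated with 1 nM [3H]ketanserin for 15 min at 37 °C, then filtered and counted. Nonspecific binding was defined with methysergide. IC50 was obtained by probit analysis and converted to Ki using the Scatchard-derived Kd.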

dopamine D2 receptor = target: T2, dopamine D2 receptor (Rattus norvegicus, UniProt P61169); assay: dopamine D2 receptor binding test ([3H] Spiperone Binding Test); conditions: 1 nM [3H] Spiperone, rat corpus striatum, room temperature, 60 minutes
T2 construct: the receptor fraction prepared from the corpus striatum was molten and suspended; from tissue; host or cells: corpus striatum of SD rats (membrane fraction)
T2 sequence (P61169 whole entry): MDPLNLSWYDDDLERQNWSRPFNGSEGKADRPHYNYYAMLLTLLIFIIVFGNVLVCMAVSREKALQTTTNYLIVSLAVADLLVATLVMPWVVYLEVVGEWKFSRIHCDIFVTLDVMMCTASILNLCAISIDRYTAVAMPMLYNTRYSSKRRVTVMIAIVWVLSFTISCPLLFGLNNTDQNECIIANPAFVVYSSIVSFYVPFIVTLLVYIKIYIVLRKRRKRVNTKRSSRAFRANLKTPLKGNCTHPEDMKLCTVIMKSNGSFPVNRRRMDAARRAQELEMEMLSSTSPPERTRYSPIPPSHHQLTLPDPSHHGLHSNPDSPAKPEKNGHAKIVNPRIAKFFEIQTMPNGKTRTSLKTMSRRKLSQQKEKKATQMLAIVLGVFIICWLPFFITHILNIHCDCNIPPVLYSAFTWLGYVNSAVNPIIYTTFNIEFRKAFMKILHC
In short: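 Rat (SD, 6–8 weeks) corpus striatum membranes in 50 mM Krebs-Tris pH 7.4 were incubated with 1 nM [3H]spiperone at room temperature for 60 minutes, with nonspecific binding defined by excess spiperone. IC50 came from probit analysis; Ki was derived using radioligand concentration and Scatchard Kd.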

adrenergic α1 receptor = adrenergic α1 receptor binding test ([3H] Prazosin Binding Test); conditions: 1 nM [3H] Prazosin, rat cortex, room temperature, 60 minutes
In short: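 Rat (SD, 6-8 weeks) cerebral cortex membranes in 50 mM Tris-HCl pH 7.4 incubated with 1 nM [3H]prazosin for 60 min at room temperature; nonspecific binding defined with phentolamine. IC50 by probit method, converted to Ki using radioligand concentration and Scatchard-derived Kd.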

[1] = read-out: Ki value, dopamine D2 receptor

Row | Structure (SMILES) | pKi (serotonin S2 receptor) | pKi (dopamine D2 receptor; [1]) | pKi (adrenergic α1 receptor) | pKi (dopamine D2 receptor; Ki value, dopamine D2 receptor)
1 | CCC(F)c1cc(N2CCN(CCc3ccccn3)CC2)cc(-c2ccccc2C#N)c1Cl (stereo not drawn) [Example 214, 1-[2-(2-Pyridyl)ethyl]-4-[3-(2-cyanophenyl)-4-chloro-5-(1-fluoropropyl)]phenylpiperazine] | 8.42 | 8.29 | 7.29 | 
2 | CCN1CCN(c2cc(CC(C)O)c(OC)c(-c3ccccc3)c2)CC1 (stereo not drawn) [Example 75, 1-Ethyl-4-[3-phenyl-4-methoxy-5-(2-hydroxypropyl)]phenylpiperazine] | 6.31 | < 6.00 | < 6.00 | 
3 | CCN1CCN(c2cc(CCCF)c(OC)c(-c3ccccc3)c2)CC1 [Example 77, 1-Ethyl-4-[3-phenyl-4-methoxy-5-(3-fluoropropyl)]phenylpiperazine] | 7.61 | 7.40 | 6.74 | 
4 | CCC(F)c1cc(N2CCN(CCc3ccccn3)CC2)cc(-c2ccccc2C)c1Cl (stereo not drawn) [Example 213, 1-[2-(2-Pyridyl)ethyl]-4-[3-(2-tolyl)-4-chloro-5-(1-fluoropropyl)]phenylpiperazine] | 7.99 | 7.84 | 6.63 | 
5 | CCN1CCN(c2cc(-c3ccccc3C)c(Cl)c(S(=O)(=O)N3CCCC3)c2)CC1 [Example 141] | 7.03 | 7.60 | < 6.00 | 
6 | CCN1CCN(c2cc(-c3ccccc3)c(OC)c([S+](C)[O-])c2)CC1 (stereo not drawn) [Example 104, 1-Ethyl-4-(3-phenyl-4-methoxy-5-methanesulfinyl)phenylpiperazine] | 7.61 | 7.15 | < 6.00 | 
7 | CCN1CCN(c2cc(-c3ccccc3)c(OC)c([S+]([O-])CC)c2)CC1 (stereo not drawn) [Example 105, 1-Ethyl-4-(3-phenyl-4-methoxy-5-ethanesulfinyl)phenylpiperazine] | 8.28 | 7.52 | 6.21 | 
8 | CCN1CCN(c2cc(NS(=O)(=O)CC(F)(F)F)c(Cl)c(-c3ccccc3Cl)c2)CC1 [Example 163, 1-Ethyl-4-[3-(2-chlorophenyl)-4-chloro-5-(2,2,2-trifluoroethyl)sulfonylamino]phenylpiperazine] | 7.20 | 7.99 | 6.71 | 
9 | CCCc1cc(N2CCN(CC)CC2)cc(-c2ccc(OC)cc2)c1OC [Example 73, 1-Ethyl-4-[3-(4-methoxphenyl)-4-methoxy-5-propyl]phenylpiperazine] | 6.20 | 6.24 | 6.48 | 
10 | CCN1CCN(c2cc(-c3ccccc3)c(OC)c(C(O)Cc3ccccc3)c2)CC1 (stereo not drawn) [Example 94, 1-Etyl-4-[3-phenyl-4-methoxy-5-(1-hydroxyphenethyl)]phenylpiperazine] | 6.96 | 7.86 | 6.22 | 
11 | CCCc1cc(N2CCN(CC)CC2)cc(-c2ccc(F)cc2F)c1OC [Example 91, 1-Ethyl-4-[3-(2,4-difluorophenyl)-4-methoxy-5-propyl]phenylpiperazine] | 7.43 | 8.13 | 6.49 | 
12 | CCN1CCN(c2ccc(OC)c(-c3ccccc3)c2)CC1 [Example 57, 1-Ethyl-4-(3-phenyl-4-methoxy)phenylpiperazine] | < 6.00 | < 6.00 | < 6.00 | 
13 | CCCNc1cc(N2CCN(CC)CC2)cc(-c2ccccc2)c1OC [Example 117, 1-Ethyl-4-(3-phenyl-4-methoxy-5-propylamino)phenylpiperazine] | 6.83 | 7.30 | 6.48 | 
14 | CCN1CCN(c2cc(-c3ccccc3C)c(Cl)c(S(=O)(=O)N(C)C)c2)CC1 [Example 154, 1-Ethyl-4-[3-(2-tolyl)-4-chloro-5-dimethylaminosulfonyl]phenylpiperazine] | 6.82 | 8.59 | < 6.00 | 
15 | CCN1CCN(c2cc(-c3ccccc3)c(OC)c(C(F)Cc3ccncc3)c2)CC1 (stereo not drawn) [Example 121, 1-Ethyl-4-{3-phenyl-4-methoxy-5-[1-fluoro-2-(4-pyridyl)ethyl]}phenylpiperazine] | 6.77 | 7.96 | 6.51 | 
16 | CCN1CCN(c2cc(C#N)c(OC)c(-c3ccccc3)c2)CC1 [Example 89, 1-Ethyl-4-(3-phenyl-4-methoxy-5-cyano)phenylpiperazine] | 6.51 |  | < 6.00 | 7.35
17 | CCC(F)c1cc(N2CCN(CC)CC2)cc(-c2ccccc2C)c1Cl (stereo not drawn) [Example 131, 1-Ethyl-4-[3-(2-tolyl)-4-chloro-5-(1-fluoropropyl)]phenylpiperazine] | 7.68 | 8.48 | < 6.00 | 

Row | Structure (SMILES) | pKi (serotonin S2 receptor) | pKi (dopamine D2 receptor; [1]) | pKi (adrenergic α1 receptor) | pKi (dopamine D2 receptor; Ki value, dopamine D2 receptor)
18 | CCN1CCN(c2cc(-c3ccccc3)c(OC)c(S(=O)(=O)CC)c2)CC1 [Example 133, 1-Ethyl-4-(3-phenyl-4-methoxy-5-ethanesulfonyl)phenylpiperazine] | 8.04 | 7.54 | < 6.00 | 
19 | CCC(CC)c1cc(N2CCN(CC)CC2)cc(-c2ccccc2C)c1Cl [Example 157, 1-Ethyl-4-[3-(2-tolyl)-4-chloro-5-(1-ethylpropyl)]phenylpiperazine] | 7.13 | 8.14 | < 6.00 | 
20 | CCN1CCN(c2cc(-c3ccccc3C)c(Cl)c(C(F)(F)CC)c2)CC1 [Example 55, 1-Ethyl-4-[3-(2-tolyl)-4-chloro-5-(1,1-difluoropropyl)]phenylpiperazine] | 6.95 | 8.51 | < 6.00 | 
21 | CCCS(=O)(=O)Nc1cc(N2CCN(CC)CC2)cc(-c2ccccc2C=O)c1Cl [Example 196, 1-(2-Ethyl)-4-[3-(2-formylphenyl)-4-chloro-5-propanesulfonylamino]phenylpiperazine] | 7.88 | 8.26 | 6.13 | 
22 | CCOC(=O)CCc1cc(N2CCN(CC)CC2)cc(-c2ccccc2)c1OC [Example 111, 1-Ethyl-4-[3-phenyl-4-methoxy-5-(2-ethoxycarbonylethyl)]phenylpiperazine] | 7.24 | 7.38 | 6.68 | 
23 | CCC(F)c1cc(N2CCN(C)CC2)cc(-c2ccccc2Cl)c1Cl (stereo not drawn) [Example 22, 1-Methyl-4-[3-(2-chlorophenyl)-4-chloro-5-(1-fluoropropyl)]phenylpiperazine] | 7.72 | 8.55 | 6.09 | 
24 | CCN1CCN(c2cc(-c3ccccc3)c(OC)c(N(C)S(=O)(=O)CC)c2)CC1 [Example 122, 1-Ethyl-4-[3-phenyl-4-methoxy-5-(N-ethanesulfonyl-N-methylamino)]phenylpiperazine] | 6.91 | 7.34 | 7.17 | 
25 | CCCc1cc(N2CCN(CC)CC2)cc(-c2ccccc2C)c1OC [Example 116, 1-Ethyl-4-[3-(2-tolyl)-4-methoxy-5-propyl]phenylpiperazine] | 7.40 | 8.02 | < 6.00 | 
26 | CCC(O)c1cc(N2CCN(CC)CC2)cc(-c2ccccc2)c1Cl (stereo not drawn) [Example 138, 1Ethyl-4-[3-phenyl-4-chloro-5-(1-hydroxypropyl)]phenylpiperazine] | 7.60 | 8.54 | 8.03 | 
27 | C=CCCC(F)c1cc(N2CCN(CC)CC2)cc(-c2ccccc2C)c1Cl (stereo not drawn) [Example 160, 1-Ethyl-4-[3-(2-tolyl)-4-chloro-5-(1-fluoro-4-pentenyl)]phenylpiperazine] | 7.83 | 7.87 | < 6.00 | 
28 | CC[C@@H](F)c1cc(N2CCN(C)CC2)cc(-c2ccccc2C)c1Cl [Example 220, 1-Methyl-4-{3-(2-tolyl)-4-chloro-5-[1-(R)-fluoropropyl]}phenylpiperazine] | 7.42 | 8.90 | 5.77 | 
29 | CCCC(F)c1cc(N2CCN(C)CC2)cc(-c2ccccc2Cl)c1Cl (stereo not drawn) [Example 178, 1-Methyl-4-[3-(2-chlorophenyl)-4-chloro-5-(1-fluorobutyl)]phenylpiperazine] | 7.91 | 8.14 | < 6.00 | 
30 | CCCc1cc(N2CCN(CC)CC2)cc(-c2ccccc2)c1OC [Example 59, 1-Ethyl-4-(3-phenyl-4-methoxy-5-propyl)phenylpiperazine] | 7.44 | 7.33 | 6.52 | 
31 | CCN1CCN(c2cc(NS(=O)(=O)CC(F)(F)F)c(Cl)c(-c3ccccc3C)c2)CC1 [Example 136] | 7.05 | 7.85 | 6.33 | 
32 | CCN1CCN(c2cc(-c3ccccc3)c(Cl)c(S(=O)(=O)CC)c2)CC1 [Example 139, 1Ethyl-4-(3-phenyl-4-chloro-5-ethanesulfonyl)phenylpiperazine] | 8.27 | 8.63 | 7.16 | 
33 | CCCS(=O)(=O)Nc1cc(N2CCN(CC)CC2)cc(-c2ccccc2)c1Cl [Example 184, 1-Ethyl-4-(3-phenyl-4-chloro-5-propanesulfonylamino)phenylpiperazine] | 8.68 | 9.77 | 8.34 | 
34 | CCCS(=O)(=O)c1cc(N2CCN(C)CC2)cc(-c2ccc(F)cc2)c1OC [Example 193, 1-Methyl-4-[3-(4-fluorophenyl)-4-methoxy-5-propanesulfonyl]phenylpiperazine] | 8.79 | 7.71 | 6.23 | 
